{"source": "patent US5994349A", "about": "“3-carboalkoxy-2, 3-dihydro-1H-phenothiazin-4[10H]-one derivatives” (priority 1997, dated 1999)", "key": {"[1]": {"test_system": "maximal electroshock seizures", "assay": "maximal electroshock (MES) test, Phase I, mice ip", "assay_type": "in vivo, male Carworth Farms No. 1 (CF1) mice", "conditions": "Mus musculus", "in_short": "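Male CF1 mice (18-25 g) dosed ip at 30, 100 and 300 mg/kg in 0.5% methylcellulose, tested 30 min and 4 h later (sometimes 2 h and 6 h). Corneal 60-cycle, 50 mA current for 0.2 s; protection = abolition of hind limb tonic extension, scored as protected/tested.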"}, "[2]": {"test_system": "maximal electroshock seizures", "assay": "maximal electroshock (MES) test, oral rat (Phase VIA/VIB)", "assay_type": "in vivo, male Sprague-Dawley rats", "conditions": "30 mg/kg"}, "[3]": {"assay": "stability in refluxing DMSO", "assay_type": "physicochemical", "conditions": "refluxing DMSO for periods up to 40 min, forming 4m", "method": "Without wishing to be held to any particular theory, when experimental conditions for the final step are identical for each ester, (i.e., 40 min reflux in DMSO), it is believed that the ter-butyl compound 4c (X=H) undergoes thermal decomposition to give 2,3-dihydro-1H-phenothiazin-4[10H]-one, 4d (X=H). Thermal decomposition of the desired phenothiazine 4c (X=H) to butylene and the b-keto acid (4, R=X=H) is suspected, followed by decarboxylation of the latter compound to 4d (X=H). This is substantiated by the formation of the 4c series by employing shorter reflux times in DMSO. […] Friary and coworkers have shown that 7c (R=C(CH3)3) is readily decarboxylated under acid-catalyzed conditions to form 7d (see Scheme III below). Friary, R. J.; Gilligan, J. M.; Szajewski, R. P.; Falci, K. J.; Franck, R. W. Heterocyclic syntheses via the intramolecular acylation of enamines derived from animo acids. J. Org. Chem. 1973, 38, 3487-3490. [drawing 7]"}, "neurotoxicity (rotorod) [4]": {"test_system": "neurotoxicity (rotorod)", "assay": "rotorod test for neurological toxicity (Tox), Phase I, mice ip", "assay_type": "in vivo, male Carworth Farms No. 1 (CF1) mice", "in_short": "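Neurological toxicity was assessed in Phase I with the rotorod test in male Carworth Farms No. 1 (CF1) mice weighing 18-25 g, dosed intraperitoneally. Each mouse was set on a knurled plastic rod of 1 inch diameter turning at 6 rpm, a speed normal mice can stay on indefinitely. Motor impairment was recorded 30 min and 4 h after dosing, sometimes also at 2 h and 6 h.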"}, "neurotoxicity (rotorod) [5]": {"test_system": "neurotoxicity (rotorod)", "assay": "rotorod toxicity, oral rat (Phase VIA/VIB)", "assay_type": "in vivo, male Sprague-Dawley rats", "conditions": "rat oral, 30 mg/kg", "in_short": "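Male Sprague-Dawley rats (100-150 g) dosed orally. Neurotoxicity scored by ability to stay on a 1 inch diameter knurled plastic rod rotating at 6 rpm.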"}, "[6]": {"test_system": "pentylenetetrazol seizures", "assay": "subcutaneous pentylenetetrazol (scMet) test, Phase I, mice ip", "assay_type": "in vivo, male Carworth Farms No. 1 (CF1) mice", "conditions": "Mus musculus, mice ip"}, "[7]": {"conditions": "4 h, read-out: MES 4 h (converted)"}, "[8]": {"conditions": "0.5 h, 30 min, read-out: MES 30 min (converted)"}, "[9]": {"conditions": "0.5 h, 30 min, read-out: scMet 30 min"}}, "note": "Like-named read-outs stand apart in the source and are kept apart here."}
{"compound": "C[C@@H]1CC2=C(Sc3cc(Br)ccc3N2)C(=O)[C@H]1C(=O)OC(C)(C)C", "note": "(relative stereo) [Compound 4l, 7-Bromo-3-carbo-ter-butoxy-2-methyl-2,3-dihydro-1H-phenothiazin-4[10H]-one]", "values": [{"measurement": "responders at 30 mg/kg", "setting": "[1]; 4 h, read-out: MES 4 h", "value": 0, "unit": "%"}, {"measurement": "responders at 100 mg/kg", "setting": "[1]; [7]", "value": 66.7, "unit": "%"}, {"measurement": "responders at 300 mg/kg", "setting": "[1]; [7]", "value": 100, "unit": "%"}, {"measurement": "responders at 3 mg/kg", "setting": "[1]; 0.5 h, 3 mg/kg, 30 min", "value": 0, "unit": "%"}, {"measurement": "responders at 10 mg/kg", "setting": "[1]; 0.5 h, 10 mg/kg, 30 min, read-out: MES 30 min", "value": 0, "unit": "%"}, {"measurement": "responders at 30 mg/kg", "setting": "[1]; [8]", "value": 100, "unit": "%"}, {"measurement": "responders at 100 mg/kg", "setting": "[1]; [8]", "value": 100, "unit": "%"}, {"measurement": "responders at 300 mg/kg", "setting": "[1]; [8]", "value": 100, "unit": "%"}, {"measurement": "responders at 30 mg/kg", "setting": "[2]; 0.25 h", "value": 50, "unit": "%"}, {"measurement": "responders at 30 mg/kg", "setting": "[2]; 1.00 h", "value": 100, "unit": "%"}, {"measurement": "responders at 30 mg/kg", "setting": "[2]; 2.00 h", "value": 100, "unit": "%"}, {"measurement": "responders at 30 mg/kg", "setting": "[2]; 4.00 h", "value": 100, "unit": "%"}, {"measurement": "responders at 30 mg/kg", "setting": "[2]; 0.5 h, 0.50 h", "value": 50, "unit": "%"}, {"measurement": "stability in refluxing DMSO", "setting": "[3]", "value": "lability of the 3-carbo-ter butoxy substituent"}, {"measurement": "Tox 30 min", "setting": "neurotoxicity (rotorod) [4]; 10 mg/kg", "value": "0/4"}, {"measurement": "Tox 30 min", "setting": "neurotoxicity (rotorod) [4]; 30 mg/kg", "value": "0/4"}, {"measurement": "Tox 4 h", "setting": "neurotoxicity (rotorod) [4]; 30 mg/kg", "value": "0/2"}, {"measurement": "Tox 30 min", "setting": "neurotoxicity (rotorod) [4]; 100 mg/kg", "value": "0/8"}, {"measurement": "Tox 4 h", "setting": "neurotoxicity (rotorod) [4]; 100 mg/kg", "value": "0/4"}, {"measurement": "Tox 30 min", "setting": "neurotoxicity (rotorod) [4]; 300 mg/kg", "value": "0/4"}, {"measurement": "Tox 4 h", "setting": "neurotoxicity (rotorod) [4]; 300 mg/kg", "value": "0/2"}, {"measurement": "Tox", "setting": "neurotoxicity (rotorod) [5]; 0.25 h", "value": "0/4"}, {"measurement": "Tox", "setting": "neurotoxicity (rotorod) [5]; 0.50 h", "value": "0/4"}, {"measurement": "Tox", "setting": "neurotoxicity (rotorod) [5]; 1.00 h", "value": "0/4"}, {"measurement": "Tox", "setting": "neurotoxicity (rotorod) [5]; 2.00 h", "value": "0/4"}, {"measurement": "Tox", "setting": "neurotoxicity (rotorod) [5]; 4.00 h", "value": "0/4"}, {"measurement": "responders at 30 mg/kg", "setting": "[6]; [9]", "value": 0, "unit": "%"}, {"measurement": "responders at 100 mg/kg", "setting": "[6]; [9]", "value": 0, "unit": "%"}, {"measurement": "responders at 300 mg/kg", "setting": "[6]; 0.5 h, 30 min, read-out: scMet 30 min (converted)", "value": 33.3, "unit": "%"}, {"measurement": "responders at 30 mg/kg", "setting": "[6]; 4 h, read-out: scMet 4 h", "value": 0, "unit": "%"}, {"measurement": "responders at 100 mg/kg", "setting": "[6]; 4 h, read-out: scMet 4 h", "value": 0, "unit": "%"}, {"measurement": "responders at 300 mg/kg", "setting": "[6]; 4 h, read-out: scMet 4 h (converted)", "value": 0, "unit": "%"}]}
